These results are taken from ChEMBL document CHEMBL1201862, “PubChem BioAssay data set” (2004).

SMILES strings stand for the structures. Where a name gives a salt, the structure may show the parent alone.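 Assay format: 96-well plates, 48-hour exposure. Abbreviation: GI50, concentration required for 50% inhibition of growth.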 Active and inactive are the calls of the source. Cut-off read from the data, not from the text of the source: active = GI50 up to about 1.1 µM and inactive = higher.

Among the test systems are XF498; SNB-78; RXF 631; LXFL 529; DMS-114; M19-MEL; KM-20L2; Hs-578T; BT-549.
Assay in all cases: DTP human tumour cell line panel, 48 h

On to `Fc1cccc(Cl)c1C1SCc2nc3ccccc3n21` (stereo unspecified), for which the GI50 (as a rule, the concentration that inhibits growth by half) in the test with XF498 was 27.7 µM (inactive); in the test with SNB-78, 22.2 µM (inactive); in the test on RXF 631, 25.3 µM (inactive); with LXFL 529, 35.9 µM (inactive); with DMS-114 it was 20.7 µM (inactive); in the test on M19-MEL, 26.1 µM (inactive). Moreover, in the test on KM-20L2, the GI50 was 17.2 µM (inactive).

As for `CCCCN(CCCC)C(=O)C(=O)C(C(=O)c1ccc(OC)cc1)c1ccc(OC)cc1` (stereo unspecified), the GI50 in the test with SNB-78 is > 100 µM (inactive); in the test on RXF 631 it was > 100 µM (inactive); with LXFL 529, > 100 µM (inactive); in the test on DMS-114, 78.7 µM (inactive); with KM-20L2 it was > 100 µM (inactive).

Regarding `COc1cc(OC)c2c(O)cc(CC(C)O)cc2c1` (stereo unspecified), the GI50 in the test on XF498, in the test with SNB-78, in the test with RXF 631, in the test on LXFL 529, in the test on DMS-114 and with M19-MEL was > 100 µM (inactive) each time. Also, the GI50 in the test on KM-20L2 is > 100 µM (inactive).

For the compound `CN1CCCS/C1=C1/SC(=S)N(c2ccccc2)C1=O`, the GI50 in the test with XF498, in the test on SNB-78, in the test on RXF 631, in the test on LXFL 529, with DMS-114 and in the test with M19-MEL was > 100 µM (inactive) in each case. Besides, the GI50 in the test on KM-20L2 is > 100 µM (inactive).

As to `NC(CCCNc1ccc(O)cc1)C(=O)O` (stereo unspecified), the GI50 with XF498 was 22.5 µM (inactive); in the test on SNB-78, > 83.6 µM (inactive); in the test with RXF 631, 54.3 µM (inactive); in the test on LXFL 529, 18.3 µM (inactive); with DMS-114, 24.9 µM (inactive); with M19-MEL it was 18.2 µM (inactive). The GI50 with KM-20L2 is > 100 µM (inactive).

In the case of `NC(=O)c1ncn(Cc2ccccc2)c1CNC(N)=S`, the GI50 with XF498, with SNB-78, in the test with RXF 631, in the test on LXFL 529, with DMS-114 and in the test on M19-MEL was > 100 µM (inactive) each time.

Turning to `CN(C)CC1CCCCCCCCCC(CN(C)C)C1=O` (stereo unspecified), the GI50 with Hs-578T was 8.18 µM (inactive); in the test with XF498, > 100 µM (inactive); in the test with SNB-78, > 100 µM (inactive); in the test with RXF 631, > 100 µM (inactive); with BT-549 it was 6.21 µM (inactive); with LXFL 529 it was > 100 µM (inactive). Also, the GI50 in the test with DMS-114 is > 100 µM (inactive); with M19-MEL, 63.1 µM (inactive); in the test on KM-20L2 it was 61.4 µM (inactive).

Take `O=C(CCC(=O)Nc1ccc(Cl)c(Cl)c1)CC(=O)c1ccc2ccccc2c1`: the GI50 in the test on SNB-78 is > 100 µM (inactive); with RXF 631 it was > 100 µM (inactive); with LXFL 529, 42.7 µM (inactive); in the test with DMS-114 it was 86.5 µM (inactive); in the test on M19-MEL, > 100 µM (inactive); with KM-20L2, 25.9 µM (inactive).

`C/C(=N\NC(=O)C[N+](C)(C)C)c1sc(-c2cccnc2)nc1C`: the GI50 in the test on XF498 was > 100 µM (inactive); with SNB-78 it was > 100 µM (inactive); in the test with RXF 631, > 100 µM (inactive); in the test with LXFL 529, 67 µM (inactive); in the test with DMS-114, > 100 µM (inactive); with M19-MEL, > 100 µM (inactive). Further, the GI50 with KM-20L2 is > 100 µM (inactive).

As for `COc1ccc(C(c2ccccc2)(c2ccc(OC)cc2)N2C(=O)NC3C(CCCCC(=O)NCCCCCCOP(OCCC#N)N(C(C)C)C(C)C)SCC32)cc1` (stereo unspecified), the GI50 is 15.8 µM (inactive) in the test with XF498; 16.2 µM (inactive) in the test on SNB-78; 4.06 µM (inactive) with RXF 631; 11.9 µM (inactive) in the test with LXFL 529; 17.7 µM (inactive) in the test on DMS-114; 16.8 µM (inactive) in the test with M19-MEL. Further, the GI50 in the test on KM-20L2 is 17.1 µM (inactive).

As to `Cn1cc2ccccc2c1-c1nc(F)nc(Nc2ccc(N)cc2)n1`, the GI50 with XF498 is 12.5 µM (inactive); in the test on SNB-78 it was 15.2 µM (inactive); with RXF 631 it was 18.3 µM (inactive); in the test on LXFL 529, 16 µM (inactive); with DMS-114, 17.7 µM (inactive); in the test with M19-MEL it was 11.9 µM (inactive). Moreover, in the test on KM-20L2, the GI50 is 18 µM (inactive).

Regarding `NC1=NC(c2ccccc2)CC(c2cc(Cl)cc(Br)c2O)=N1` (stereo unspecified), the GI50 was 13.7 µM (inactive) in the test on XF498; 17.2 µM (inactive) in the test on SNB-78; 17.5 µM (inactive) in the test with RXF 631; 16.7 µM (inactive) in the test on LXFL 529; 8.69 µM (inactive) in the test with DMS-114; 12.8 µM (inactive) in the test on M19-MEL. Moreover, the GI50 with KM-20L2 is 15.7 µM (inactive).

As for `O=C(CC(=O)N1N=C(c2ccccc2)C(/N=N/c2ccccc2Cl)C1=O)Nc1ccccc1Cl` (stereo unspecified), the GI50 was 20.7 µM (inactive) in the test with XF498; 40.9 µM (inactive) in the test on SNB-78; 48.5 µM (inactive) in the test on RXF 631; 26.2 µM (inactive) with LXFL 529; 54.1 µM (inactive) in the test on DMS-114; 32.2 µM (inactive) with M19-MEL. Further, the GI50 with KM-20L2 is 46.3 µM (inactive).

Turning to `C[C@]12CCc3nonc3C1CC[C@@H]1C2CC[C@]2(C)C(=O)CCC12` (stereo partly specified), the GI50 in the test with XF498 was 17.5 µM (inactive); in the test with SNB-78, 59.6 µM (inactive); with RXF 631 it was 57.8 µM (inactive); with LXFL 529, 35.9 µM (inactive); in the test with DMS-114, 22.4 µM (inactive); in the test on M19-MEL it was 25.8 µM (inactive). Also, the GI50 with KM-20L2 is 26.5 µM (inactive).

As for `COc1cccc2c1C(=O)c1c(O)c3c(c(O)c1C2=O)C[C@@](O)(C(=O)CO)CC3OC1CC(NCCCC(OC(C)=O)OC(C)=O)C(O)C(C)O1` (stereo partly specified), the GI50 with XF498 was 0.00183 µM (active); in the test with SNB-78 it was 0.00224 µM (active); in the test on RXF 631 it was < 0.0001 µM (active); in the test on LXFL 529 it was 0.00262 µM (active); in the test on DMS-114 it was 0.00703 µM (active); with M19-MEL, 0.00261 µM (active). Further, the GI50 in the test on KM-20L2 was 0.000912 µM (active).

For the compound `CC[C@@]1(O)C(=O)OCc2c1cc1n(c2=O)Cc2cc3c(CN(C)C)c(O)ccc3nc2-1` [TOPOTECAN HYDROCHLORIDE], the GI50 with Hs-578T was 1.1 µM (active); with XF498 it was 0.0387 µM (active); with SNB-78 it was 4.71 µM (inactive); in the test on RXF 631, 0.375 µM (active); in the test with LXFL 529, 2.29 µM (inactive); with DMS-114, 0.0187 µM (active). Further, the concentration for 50% growth inhibition (GI50) in the test with M19-MEL is 0.0649 µM (active); with KM-20L2, 0.146 µM (active).
